Assay results as given in US8901116B2, “Method for treating pain, anxiety or depression using carbamoyloxy alkanoyl piperazine compound” (SK Biopharmaceuticals Co., Ltd., priority 2007, dated 2014).

Tests used:
Assay type in all cases: in vivo
male ICR mouse [1] = test: Hot plate test in mouse; settings: po, p.o, 1 hour after dosing, hot plate 55° C., read-out: Hot Plate Test Increase in latency of avoidance response
Procedure: A hot plate test is one of representative models for measuring an analgesic effect of drugs. A test material dissolved in a suitable vehicle was orally administered to a male ICR mouse weighing 25 to 30 g at an amount of 30 mg/kg. After 1 hour of the oral administration, the mouse was put on a hot plate (55° C.). A latency was recorded from the time right after a mouse is put on a hot plate to the time when avoidance responses (flinching, licking, jumping, etc.) to pain are observed from forefeet or rear legs of the mouse. The analgesic effect of the test material is represented by the ‘Increase in latency of avoidance response’ {[(Latency of avoidance response to pain of Test material-administered group−Latency of avoidance response to pain of vehicle-administered group)/(Latency of avoidance response to pain of Solvent-administered group)]×100%}.

male ICR mouse [2] = test: Acetic acid-induced writhing test in mouse; settings: po, p.o, acetic acid i.p. 1 hour after dosing, writhing counted for 10 minutes, read-out: Writhing Test Suppression of pain response
Procedure: An acetic acid-induced writhing test is one of models for measuring an analgesic effect of drugs. A test material dissolved in a suitable vehicle was orally administered to a male ICR mouse weighing 30 to 35 g at an amount of 10 mg/kg. After 1 hour of the oral administration, […] of an aqueous 0.8% acetic acid solution was intraperitoneally injected into the male ICR mouse to induce the abdominal pain of the male ICR mouse. Right after the administration of acetic acid, the male ICR mouse was put into an empty cage, and the number of writhing behaviors of the mice was counted for 10 minutes. The term “writhing” represents a reflex action in which the mouse overtly extends its abdomen by stretching its hind legs due to the abdominal pain. The analgesic effect of the test material is represented by the ‘suppression of pain response’ {[(Writhing number of vehicle-administered group−Writhing number of Test material—administered group)/(Writhing number of Solvent-administered group)]×100%}.

male ICR mouse [3] = test: Elevated plus maze (EPM) test in mouse; settings: po, p.o, 1 hour after dosing, 5 minutes observation, read-out: Elevated Plus Maze Change index in Open-Arm Time
Text: Elevated plus maze (EPM) is one of representative models that examine an anti-anxiety activity of a test material. Equipment used for an EPM test has a crossroad shape raised in a high position off the ground, and is configured in such a cliff shape that both sides of one road are protected with high walls and the other road is free from the wall. Among them, the road in the cliff shape is referred to as an ‘open arm,’ and the road protected by the walls is referred to as a ‘close arm.’ In this case, a level of the anxiety of a mouse may be measured by determining in which arm the mouse stays longer. In general, the mouse stays longer in the close arm than the open arm, but a mouse treated with a medicine showing an anti-anxiety effect stays relatively longer in the open arm. A test material dissolved in a suitable vehicle was orally administered to a male ICR mouse weighing 20 to 25 g at an amount of 10 mg/kg. After 1 hour of the oral administration, the mouse was put on the center of an EPM equipment to measure how long the mouse stays in the open arm within a time range of 5 minutes. The anti-anxiety effect of the test material is represented by the ‘Change index in Open-Arm Time’ {[(open arm duration in test material-administered group−open arm duration in vehicle-administered group)/(open arm duration in vehicle administered group)]×100%}.

male ICR mouse [4] = test: Head twitch potentiation induced by 5-HTP (5-HTP potentiation test) in mouse; settings: po, 0.5 h, p.o, 5-HTP 80 mg/kg + Carbidopa 25 mg/kg i.p. 30 minutes after dosing, head twitches counted for 2 minutes, negative = 5-HT2A antagonist, read-out: 5-HTP Potentiation Increase rate in Head Twitch No.
Procedure: When 5-hydroxy-L-tryptophan (5-HTP) is administered into a mouse, a head twitch phenomenon is observed since serotonin is increasingly secreted in the mouse. […] By using this principle, it is possible to search an effect of the representative antidepressant agent. A test material dissolved in a suitable vehicle was orally administered to a male ICR mouse weighing 20 to 25 g at an amount of 30 mg/kg. After 30 minutes of the oral administration, 5-HTP (80 mg/kg) and 5-HTP peripheral decarbozylase inhibitor ‘Carbidopa’ (25 mg/kg) were intraperitoneally administered to the mouse. After 30 minutes of the intraperitoneal administration, the mouse was put into an observation cage, and head twitches of the mouse were counted for 2 minutes. The anti-depression effect of the test material is represented by the ‘Increase rate in Head Twitch No.’ {[(Head Twitch No. of Test material-administered group−Head Twitch No. of vehicle-administered group)/(Head Twitch No. of vehicle-administered group)]×100%}. […] In addition to the selective serotonin reuptake inhibitor (SSRI) that has been widely used as an antidepressant agent in the clinical fields, it was tested that 5-HT2A antagonists such as nefazodone and trazodone also have an antidepressant effect.

| SMILES | change in vivo at 30 mg/kg (male ICR mouse [1]) | inhibition in vivo at 10 mg/kg (male ICR mouse [2]) | change in vivo at 10 mg/kg (male ICR mouse [3]) | change in vivo at 30 mg/kg (male ICR mouse [4]) |
| --- | --- | --- | --- | --- |
| NC(=O)OC(CC(=O)N1CCN(Cc2ccc(Cl)c(Cl)c2)CC1)c1ccccc1 (stereo not shown) [Example 37, carbamic acid 3-[4-(3,4-dichloro-benzyl)-piperazin-1-yl]-3-oxo-1-phenyl-propyl ester] | 10% | 38.1% | 98.8% | 167% |
| NC(=O)OC(CC(=O)N1CCN(CCc2ccc(Cl)c(Cl)c2)CC1)c1ccccc1 (stereo not shown) [Example 39, carbamic acid 3-{4-[2-(3,4-dichloro-phenyl)-ethyl]-piperazin-1-yl}-3-oxo-1-phenyl-propyl ester] | 18.7% | 23.2% | 57.8% | 319% |
| NC(=O)OC(CCC(=O)N1CCN(c2ccc(Cl)c(Cl)c2)CC1)c1ccccc1 (stereo not shown) [Example 40, carbamic acid 4-[4-(3,4-dichloro-phenyl)-piperazin-1-yl]-4-oxo-1-phenyl-butyl ester] | 27.8% | 11.1% | 68.8% | 311% |
| NC(=O)OC(CC(=O)N1CCN(c2ccccc2)CC1)c1ccccc1Cl (stereo not shown) [Example 43, carbamic acid 1-(2-chloro-phenyl)-3-oxo-3-(4-phenyl-piperazin-1-yl)-propyl ester] | 26.7% | 46% | 19.7% | 211% |
| NC(=O)OC(CC(=O)N1CCN(c2ccccc2)CC1)c1cccc(C(F)(F)F)c1 (stereo not shown) [Example 45, carbamic acid 1-(3-trifluormethyl-phenyl)-3-oxo-3-(4-phenyl-piperazin-1-yl)-propyl ester] | 6.9% | 19% | 74.5% | 167% |
| NC(=O)OC(CC(=O)N1CCN(c2ccccc2)CC1)c1cccc(Br)c1 (stereo not shown) [Example 46, carbamic acid 1-(3-bromo-phenyl)-3-oxo-3-(4-phenyl-piperazin-1-yl)-propyl ester] | 33.1% | 71.3% | 5.7% | 40.3% |
| NC(=O)OC(c1ccccc1)C(F)(F)C(=O)N1CCN(c2ccccc2)CC1 (stereo not shown) [Example 47, carbamic acid 2,2-difluoro-3-oxo-1-phenyl-3-(4-phenyl-piperazin-1-yl)-propyl ester] | 27.2% | 28.8% | 21.4% | 22.5% |
| NC(=O)OC(CC(=O)N1CCN(c2ccccc2)CC1)c1ccoc1 (stereo not shown) [Example 49, carbamic acid-1-furan-3-yl-3-oxo-3-(4-phenyl-piperazin-1-yl)-propyl ester] | 20.6% | 34.4% | 48.9% | -20% |
| Cc1cccc(C(CC(=O)N2CCN(c3ccccc3)CC2)OC(N)=O)c1 (stereo not shown) [Example 50, carbamic acid 1-(3-methyl-phenyl)-3-oxo-3-(4-phenyl-piperazin-1-yl)-propyl ester] | 31.3% | 15% | 65.4% | -21.3% |
| NC(=O)OC(CC(=O)N1CCN(c2ccccc2)CC1)c1cccc(Cl)c1 (stereo not shown) [Example 51, carbamic acid 1-(3-chloro-phenyl)-3-oxo-3-(4-phenyl-piperazin-1-yl)-propyl ester] | 29.2% | 50.8% | -0.7% | 40.3% |
| NC(=O)OC1c2ccccc2CCC1C(=O)N1CCN(c2ccccc2)CC1 (stereo not shown) [Example 52, carbamic acid-2-(4-phenyl-piperazine-1-carbonyl)-1,2,3,4-tetrahydro-naphthalene-1-yl ester] | 20.5% | 26.8% | 14.6% | 40% |
| NC(=O)OC(CC(=O)N1CCN(c2ccccc2)CC1)c1ccc(Cl)c(Cl)c1 (stereo not shown) [Example 53, carbamic acid 1-(3,4-dichloro-phenyl)-3-oxo-3-(4-phenyl-piperazin-1-yl)-propyl ester] | 10.6% | 28.5% | -17.7% | 50% |
| NC(=O)OC(CC(=O)N1CCN(c2ccccc2)CC1)c1cc(C(F)(F)F)cc(C(F)(F)F)c1 (stereo not shown) [Example 55, carbamic acid 1-(3,5-trifluoromethyl-phenyl)-3-oxo-3-(4-phenyl-piperazin-1-yl)-propyl ester] | 13.9% | 32.8% | 13.8% | 22.5% |
| NC(=O)OC(CC(=O)N1CCN(c2ccccc2)CC1)c1ccc(Cl)cc1Cl (stereo not shown) [Example 56, carbamic acid 1-(2,4-dichloro-phenyl)-3-oxo-3-(4-phenyl-piperazin-1-yl)-propyl ester] | 11.8% | 23.3% | 23.9% | 40% |
| NC(=O)OC(CC(=O)N1CCN(c2ccccc2)CC1)c1cc(F)ccc1F (stereo not shown) [Example 57, carbamic acid 1-(2,5-difluoro-phenyl)-3-oxo-3-(4-phenyl-piperazin-1-yl)-propyl ester] | 11.2% | 34.5% | 88.8% | 27.9% |
| NC(=O)OC(CC(=O)N1CCN(c2ccccc2)CC1)c1ccc(F)c(F)c1 (stereo not shown) [Example 60, carbamic acid 1-(3,4-difluoro-phenyl)-3-oxo-3-(4-phenyl-piperazin-1-yl)-propyl ester] | 17.2% | 28% | 21.3% | -23.5% |
| NC(=O)O[C@H](CC(=O)N1CCN(c2ccc(Cl)cc2)CC1)c1ccccc1 [Example 61, (R)-carbamic acid 3-[4-(4-chloro-phenyl)-piperazin-1-yl]-3-oxo-1-phenyl-propyl ester] | 38.8% | 24.1% | -27.4% | 27.3% |
| NC(=O)O[C@H](CC(=O)N1CCN(c2ccc(F)cc2)CC1)c1ccccc1 [Example 62, (R)-carbamic acid 3-[4-(4-fluoro-phenyl)-piperazin-1-yl]-3-oxo-1-phenyl-propyl ester] | 13.8% | 66.7% | 2.7% | 0.8% |
| CCOc1ccc(N2CCN(C(=O)C[C@@H](OC(N)=O)c3ccccc3)CC2)cc1 [Example 63, (R)-carbamic acid 3-[4-(4-ethoxy-phenyl)-piperazin-1-yl]-3-oxo-1-phenyl-propyl ester] | 15.2% | 59.8% | 25% | 19.5% |
